Read-outs that look alike come from different tables or passages of the source.
Legend:
[1] = Plasma concentrations in volunteers after one tablet of racemate or (S)-enantiomer; format: in vivo, Menschen; details: human, po; for concentration at 4 h: read-out: Konzentrationen nach 4 Stunden; for concentration at 5 h: read-out: Konzentrationen nach 5 Stunden; for concentration at 6 h: read-out: Konzentrationen nach 6 Stunden; for Cmax: read-out: Maximal-Konzentrationen
Experimental: (§1) Abbildung 1 gibt hierbei die Plasma-Konzentration von AG-EE 623 ZW und AG-EE 624 ZW nach 1,0 mg i.v. AG-EE 388 ZW und Abbildung 2 die Plasma-Konzentration von AG-EE 623 ZW und AG-EE 624 ZW nach 1,0 mg p.o. (Lösung) AG-EE 388 ZW jeweils an 12 freiwilligen männlichen Probanden wieder. […] Dies wirkt sich z.B. bei Applikation einer Tablette mit 2 mg AG-EE 388 ZW bzw. einer Tablette mit 1 mg AG-EE 623 ZW an 12 bzw. 6 Probanden so aus, daß die Maximal-Konzentrationen 84 ± 25 bzw. 28 ± 18 ng/ml sowie die Konzentrationen nach 4 Stunden 19 ± 8 bzw. 0,7 ± 1,0 ng/ml, nach 5 Stunden 13 ± 6 bzw. 0,3 ± 0,7 ng/ml und nach 6 Stunden 10 ± 6 bzw. 0,3 ± 0,7 ng/ml betragen.

weiblichen Ratten = test: Blood-glucose-lowering effect in female rats; format: in vivo, Ratte; details: for blutzuckersenkende Wirkung: female rats
From the text: Die beiden Enantiomeren dieser Verbindung, nämlich (S)(+)-2-Äthoxy-4-[N-[1-(2-piperidino-phenyl)-3-methyl-1-butyl] aminocarbonylmethyl]-benzoesäure (Code-Nr.: AG-EE 623 ZW) und (R)(-)-2-Äthoxy-4-[N-[1-(2-piperidino-phenyl)-3-methyl-1-butyl]aminocarbonylmethyl]-benzoesäure (Code-Nr.: AG-EE 624 ZW), wurden auf ihre blutzuckersenkende Wirkung an weiblichen Ratten geprüft.

[2] = parameters: species or system Menschen; details: in vivo
Experimental: as §1

[3] = format: in vivo, Menschen
From the text: Auf Grund dieser Ergebnisse an der Ratte erscheint für den Menschen die ausschließliche Verwendung von AG-EE 623 ZW geboten, wodurch die Dosis im Vergleich zur AG-EE 388 ZW-Dosis um 50 % reduziert werden kann. […] Darüber hinaus wurde jedoch bei den Human-Studien gefunden, daß AG-EE 623 ZW überraschende pharmakokinetische Eigenschaften aufweist, die auf Grund der AG-EE 388 ZW-Daten nicht vorhersehbar waren. AG-EE 623 ZW zeigt somit überraschende therapeutische Vorteile gegenüber dem Racemat AG-EE 388 ZW.

Ratten = test: Acute oral toxicity in rats, single dose, 14 days observation; format: in vivo
[4] = tablet with 2 mg AG-EE 388 ZW, 12 volunteers
[5] = tablet with 1 mg AG-EE 623 ZW, 6 volunteers

| Compound | concentration at 4 h [1, 4] [ng/mL] | concentration at 5 h [1, 4] [ng/mL] | concentration at 6 h [1, 4] [ng/mL] | Cmax [1, 4] [ng/mL] | blutzuckersenkende Wirkung (weiblichen Ratten) | Dauer der Wirkung (Wirkung hält an) (weiblichen Ratten; rat) [Stunden] | concentration at 4 h [1, 5] [ng/mL] | concentration at 5 h [1, 5] [ng/mL] | concentration at 6 h [1, 5] [ng/mL] | Cmax [1, 5] [ng/mL] | Elimination (Plasma-Konzentration) [2] | Eintritt der blutzuckersenkenden Wirkung ([3]; human) | Wirkungsdauer ([3]; human) | Abfall der Spiegel ([3]; in vivo) | Plasmaspiegel in Relation zur erzielten Blutzuckersenkung ([3]; in vivo) | Toxizität (Ratten; rats, 1000 mg/kg p.o.) | verstorbene Tiere (Ratten; single 1000 mg/kg p.o., suspension in 1% methylcellulose, 5 male and 5 female rats, 14 days) | Plasma-Konzentrationen nach Racemat-Gabe [2] |
| --- | --- | --- | --- | --- | --- | --- | --- | --- | --- | --- | --- | --- | --- | --- | --- | --- | --- | --- |
| CCOc1cc(CC(=O)NC(CC(C)C)c2ccccc2N2CCCCC2)ccc1C(=O)O (racemic) [AG-EE 388 ZW, 2-Äthoxy-4-[N-[1-(2-piperidino-phenyl)-3-methyl-1-butyl]aminocarbonylmethyl]-benzoesäure, reference compound] | 19 ± 8 | 13 ± 6 | 10 ± 6 | 84 ± 25 | – | – | – | – | – | – | – | – | – | – | – | – | – | – |
| CCOc1cc(CC(=O)N[C@@H](CC(C)C)c2ccccc2N2CCCCC2)ccc1C(=O)O [AG-EE 623 ZW, (S)(+)-2-Äthoxy-4-[N-[1-(2-piperidino-phenyl)-3-methyl-1-butyl]aminocarbonylmethyl]-benzoesäure] | – | – | – | – | wirksame Enantiomere | > 6 | 0.7 | 0.3 | 0.3 | 28 ± 18 | wesentlich schneller als das unwirksame Enantiomere, AG-EE 624 ZW, eliminiert | rascher ein als nach AG-EE 388 ZW-Gabe | relativ lange Wirkungsdauer | fallen rascher gegen null als die AG-EE 388 ZW-Spiegel | wesentlich niedrigere Plasmaspiegel | praktisch untoxisch | kein Tier | – |
| CCOc1cc(CC(=O)N[C@H](CC(C)C)c2ccccc2N2CCCCC2)ccc1C(=O)O [AG-EE 624 ZW, (R)(-)-2-Äthoxy-4-[N-[1-(2-piperidino-phenyl)-3-methyl-1-butyl]aminocarbonylmethyl]-benzoesäure] | – | – | – | – | unwirksame Enantiomere | – | – | – | – | – | – | – | – | – | – | – | – | in unerwartet höheren Maximal- und Dauer-Spiegeln anwesend |
